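Compound exposure: 48 hours, 5 concentrations, 96-well plates. Abbreviation: GI50, concentration required for 50% inhibition of growth. TGI denotes the concentration required for complete inhibition of growth.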
Key:
Experiment in all cases: DTP human tumour cell line panel, 48 h
[1] = tested on: UO-31 renal
[2] = tested on: SF-539 CNS
[3] = tested on: RPMI-8226 leukemia
[4] = tested on: OVCAR-5 ovarian
[5] = tested on: KM12 colon
[6] = tested on: SK-MEL-5 melanoma
[7] = tested on: MDA-MB-435
[8] = tested on: PC-3 prostate
[9] = tested on: K-562 leukemia
[10] = tested on: 786-0 renal
[11] = tested on: NCI-H23 lung
[12] = tested on: HCC-2998 colon
[13] = tested on: SF-295 CNS
[14] = tested on: HCT-15 colon
[15] = tested on: OVCAR-4 ovarian
[16] = tested on: NCI-H522 lung
[17] = tested on: MCF7 breast
[18] = tested on: T-47D breast
[19] = tested on: HOP-62 NSCLC
[20] = tested on: SF-268 CNS
[21] = tested on: U251 CNS
[22] = tested on: NCI-H226 lung
[23] = tested on: COLO 205 colon
[24] = tested on: SNB-19 CNS
[25] = tested on: HCT-116 colon
[26] = tested on: MALME-3M melanoma
[27] = tested on: OVCAR-8 ovarian
[28] = tested on: BT-549 breast
[29] = tested on: MDA-MB-231 breast
[30] = tested on: ACHN renal
[31] = tested on: OVCAR-3 ovarian
[32] = tested on: RXF 393 renal
[33] = tested on: UACC-62 melanoma
[34] = tested on: UACC-257 melanoma
[35] = tested on: SW-620 colon
[36] = tested on: NCI/ADR-RES ovarian
[37] = tested on: CAKI-1 renal
[38] = tested on: IGROV1 ovarian
[39] = tested on: DU-145 prostate
[40] = tested on: M14 melanoma
[41] = tested on: NCI-H460 lung
[42] = tested on: A549 NSCLC
[43] = tested on: SK-MEL-28 melanoma
[44] = tested on: SR leukemia
[45] = tested on: SK-OV-3 ovarian
[46] = tested on: SNB-75 CNS
[47] = tested on: A498 renal
[48] = tested on: SN12C renal
[49] = tested on: TK-10 renal
[50] = tested on: HL-60(TB) leukemia
[51] = tested on: MOLT-4 leukemia
[52] = tested on: CCRF-CEM leukemia
[53] = tested on: HT29 colon
[54] = tested on: HS 578T breast
[55] = tested on: EKVX NSCLC
[56] = tested on: LOX IMVI melanoma

Structure (SMILES): COc1cc(-c2cc(-c3nc4ccccc4[nH]3)[nH]n2)cc(OC)c1OC
- GI50 [1]: 2.21 µM
- TGI [1]: 12.2 µM
- GI50 [2]: 5.11 µM
- TGI [2]: 18.9 µM
- GI50 [3]: 1200 nM
- TGI [3]: 4.16 µM
- GI50 [4]: 13 µM
- TGI [4]: 32.7 µM
- GI50 [5]: 3.15 µM
- TGI [5]: 11.6 µM
- GI50 [6]: 1.34 µM
- TGI [6]: 3.94 µM
- GI50 [7]: 2.35 µM
- TGI [7]: 7.61 µM
- GI50 [8]: 2.1 µM
- TGI [8]: 8.54 µM
- GI50 [9]: 3.08 µM
- TGI [9]: > 100 µM
- GI50 [10]: 3.66 µM
- TGI [10]: 15.5 µM
- GI50 [11]: 2.26 µM
- TGI [11]: 14.4 µM
- GI50 [12]: 7.1 µM
- TGI [12]: 21.5 µM
- GI50 [13]: 3.13 µM
- TGI [13]: 14.7 µM
- GI50 [14]: 3.43 µM
- TGI [14]: 24.4 µM
- GI50 [15]: 1.26 µM
- TGI [15]: 7.03 µM
- GI50 [16]: 1.87 µM
- TGI [16]: 8.81 µM
- GI50 [17]: 2.79 µM
- TGI [17]: 10.3 µM
- GI50 [18]: 1.11 µM
- TGI [18]: 7.61 µM
- GI50 [19]: 3.54 µM
- TGI [19]: 16.7 µM
- GI50 [20]: 6.43 µM
- TGI [20]: 21.9 µM
- GI50 [21]: 3.73 µM
- TGI [21]: 32.6 µM
- GI50 [22]: 1.14 µM
- TGI [22]: 7.26 µM
- GI50 [23]: 3.98 µM
- TGI [23]: 15.6 µM
- GI50 [24]: 17.8 µM
- TGI [24]: > 100 µM
- GI50 [25]: 3.16 µM
- TGI [25]: 16.8 µM
- GI50 [26]: 1.95 µM
- TGI [26]: 8.49 µM
- GI50 [27]: 2.35 µM
- TGI [27]: 7.74 µM
- GI50 [28]: 1.8 µM
- TGI [28]: 8.11 µM
- GI50 [29]: 3.22 µM
- TGI [29]: 15.8 µM
- GI50 [30]: 2.77 µM
- TGI [30]: 14.2 µM
- GI50 [31]: 4 µM
- TGI [31]: 16.4 µM
- GI50 [32]: 1.77 µM
- TGI [32]: 11.4 µM
- GI50 [33]: 1.64 µM
- TGI [33]: 4.66 µM
- GI50 [34]: 2.1 µM
- TGI [34]: 6.12 µM
- GI50 [35]: 7.73 µM
- TGI [35]: 30.3 µM
- GI50 [36]: 2.88 µM
- TGI [36]: 8.49 µM
- GI50 [37]: 2.24 µM
- TGI [37]: 14.4 µM
- GI50 [38]: 2.34 µM
- TGI [38]: 15.4 µM
- GI50 [39]: 3.9 µM
- TGI [39]: 16.7 µM
- GI50 [40]: 2.57 µM
- TGI [40]: 11.6 µM
- GI50 [41]: 3.64 µM
- TGI [41]: 21.5 µM
- GI50 [42]: 2.43 µM
- TGI [42]: 15.1 µM
- GI50 [43]: 2.72 µM
- TGI [43]: 9.71 µM
- GI50 [44]: 3.32 µM
- TGI [44]: > 100 µM
- GI50 [45]: 3.48 µM
- TGI [45]: 9.74 µM
- GI50 [46]: 2830 nM
- TGI [46]: 12.8 µM
- GI50 [47]: 1.51 µM
- TGI [47]: 27.1 µM
- GI50 [48]: 3.91 µM
- TGI [48]: 20.4 µM
- GI50 [49]: 4.07 µM
- TGI [49]: 22.8 µM
- GI50 [50]: 2.54 µM
- TGI [50]: 10.5 µM
- GI50 [51]: 2130 nM
- TGI [51]: 5.17 µM
- GI50 [52]: 2120 nM
- TGI [52]: 9.96 µM
- GI50 [53]: 7.16 µM
- TGI [53]: 51.2 µM
- GI50 [54]: 6.89 µM
- TGI [54]: > 100 µM

Structure (SMILES): O=C(Nc1cc(Cl)ccc1O)c1cccc(NC2=C(Cl)C(=O)N(Cc3ccccc3)C2=O)c1
- GI50 [1]: 38.3 µM
- TGI [1]: > 100 µM
- GI50 [55]: > 100 µM
- TGI [55]: > 100 µM
- GI50 [2]: 27.2 µM
- TGI [2]: 58.9 µM
- GI50 [4]: 45.8 µM
- TGI [4]: > 100 µM
- GI50 [5]: 21.4 µM
- TGI [5]: 52 µM
- GI50 [6]: 17 µM
- TGI [6]: 31.5 µM
- GI50 [7]: 18.7 µM
- TGI [7]: 38.6 µM
- GI50 [8]: 19.2 µM
- TGI [8]: 46.1 µM
- GI50 [9]: 15.2 µM
- TGI [9]: 38.5 µM
- GI50 [10]: 22.7 µM
- TGI [10]: 50.9 µM
- GI50 [11]: 16.1 µM
- TGI [11]: 33.6 µM
- GI50 [12]: 17 µM
- TGI [12]: 32.1 µM
- GI50 [13]: 20.5 µM
- TGI [13]: 47.6 µM
- GI50 [14]: 13.3 µM
- TGI [14]: 27.6 µM
- GI50 [15]: 55.5 µM
- TGI [15]: > 100 µM
- GI50 [16]: 11.2 µM
- TGI [16]: 26.3 µM
- GI50 [17]: 13.3 µM
- TGI [17]: 36.9 µM
- GI50 [18]: 29 µM
- TGI [18]: > 100 µM
- GI50 [19]: 26.7 µM
- TGI [19]: 67.3 µM
- GI50 [20]: 18.5 µM
- TGI [20]: 38.2 µM
- GI50 [21]: 18.2 µM
- TGI [21]: 37.3 µM
- GI50 [22]: 17.4 µM
- TGI [22]: 36.6 µM
- GI50 [23]: 30.9 µM
- TGI [23]: > 100 µM
- GI50 [24]: 48.4 µM
- TGI [24]: > 100 µM
- GI50 [25]: 17.2 µM
- TGI [25]: 31 µM
- GI50 [26]: 30.5 µM
- TGI [26]: 86.4 µM
- GI50 [27]: 14.5 µM
- TGI [27]: 38.8 µM
- GI50 [28]: 26.7 µM
- TGI [28]: 80.5 µM
- GI50 [29]: 16.8 µM
- TGI [29]: 40.3 µM
- GI50 [30]: 35.6 µM
- TGI [30]: > 100 µM
- GI50 [31]: 23.4 µM
- TGI [31]: 54.4 µM
- GI50 [32]: 17.4 µM
- TGI [32]: 45.1 µM
- GI50 [33]: 31.7 µM
- TGI [33]: > 100 µM
- GI50 [34]: 23.8 µM
- TGI [34]: 68.2 µM
- GI50 [56]: 15.7 µM
- TGI [56]: 32.1 µM
- GI50 [35]: 21.3 µM
- TGI [35]: 49.9 µM
- GI50 [36]: 20.7 µM
- TGI [36]: 43.4 µM
- GI50 [37]: 22.5 µM
- TGI [37]: 68 µM
- GI50 [38]: 35.4 µM
- TGI [38]: > 100 µM
- GI50 [39]: 60.7 µM
- TGI [39]: > 100 µM
- GI50 [40]: 17.8 µM
- TGI [40]: 36.7 µM
- GI50 [41]: 18.6 µM
- TGI [41]: 40.9 µM
- GI50 [42]: 36.9 µM
- TGI [42]: > 100 µM
- GI50 [43]: 42.4 µM
- TGI [43]: > 100 µM
- GI50 [44]: 4.8 µM
- TGI [44]: 22.8 µM
- GI50 [45]: 69.1 µM
- TGI [45]: > 100 µM
- GI50 [47]: 25.8 µM
- TGI [47]: > 100 µM
- GI50 [48]: 16 µM
- TGI [48]: 33.6 µM
- GI50 [49]: 37.3 µM
- TGI [49]: 95.5 µM
- GI50 [50]: 15.9 µM
- TGI [50]: 38.7 µM
- GI50 [51]: 3240 nM
- TGI [51]: 15.8 µM
- GI50 [52]: 2140 nM
- TGI [52]: 11.5 µM
- GI50 [53]: 35.9 µM
- TGI [53]: > 100 µM
- GI50 [54]: 20.9 µM
- TGI [54]: 49.9 µM

From PubChem BioAssay (NCI)
